In PubChem BioAssay (NCI):
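Following 48 hours of exposure in 96-well plates, responses at five concentrations were used to interpolate endpoints linearly. TGI is the concentration that stops growth completely.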

Assays:
Experiment in all cases: growth of human tumour cells (NCI), 48 h
SK-MEL-2 melanoma = system: SK-MEL-2 melanoma
TK-10 renal = system: TK-10 renal
A549 NSCLC = system: A549 NSCLC
ACHN renal = system: ACHN renal
NCI-H23 lung = system: NCI-H23 lung
NCI-H460 lung = system: NCI-H460 lung
T-47D breast = system: T-47D breast
RXF 393 renal = system: RXF 393 renal
MDA-MB-231 breast = system: MDA-MB-231 breast
SR leukemia = system: SR leukemia
SF-295 CNS = system: SF-295 CNS
SK-MEL-28 melanoma = system: SK-MEL-28 melanoma
COLO 205 colon = system: COLO 205 colon
OVCAR-8 ovarian = system: OVCAR-8 ovarian
HS 578T breast = system: HS 578T breast
CCRF-CEM leukemia = system: CCRF-CEM leukemia
LOX IMVI melanoma = system: LOX IMVI melanoma
DU-145 prostate = system: DU-145 prostate
KM12 colon = system: KM12 colon
MCF7 breast = system: MCF7 breast
SK-MEL-5 melanoma = system: SK-MEL-5 melanoma
U251 CNS = system: U251 CNS
OVCAR-3 ovarian = system: OVCAR-3 ovarian
UO-31 renal = system: UO-31 renal
SNB-19 CNS = system: SNB-19 CNS
HL-60(TB) leukemia = system: HL-60(TB) leukemia
CAKI-1 renal = system: CAKI-1 renal
SK-OV-3 ovarian = system: SK-OV-3 ovarian
HT29 colon = system: HT29 colon
SF-539 CNS = system: SF-539 CNS
UACC-257 melanoma = system: UACC-257 melanoma
IGROV1 ovarian = system: IGROV1 ovarian
HCC-2998 colon = system: HCC-2998 colon
MOLT-4 leukemia = system: MOLT-4 leukemia
MDA-N = system: MDA-N
OVCAR-4 ovarian = system: OVCAR-4 ovarian
HOP-62 NSCLC = system: HOP-62 NSCLC
MDA-MB-435 = system: MDA-MB-435
SW-620 colon = system: SW-620 colon
HCT-15 colon = system: HCT-15 colon
NCI/ADR-RES ovarian = system: NCI/ADR-RES ovarian
EKVX NSCLC = system: EKVX NSCLC
NCI-H226 lung = system: NCI-H226 lung
SN12C renal = system: SN12C renal
MALME-3M melanoma = system: MALME-3M melanoma
NCI-H522 lung = system: NCI-H522 lung
A498 renal = system: A498 renal
M14 melanoma = system: M14 melanoma
OVCAR-5 ovarian = system: OVCAR-5 ovarian
SNB-75 CNS = system: SNB-75 CNS
K-562 leukemia = system: K-562 leukemia
SF-268 CNS = system: SF-268 CNS
HOP-92 NSCLC = system: HOP-92 NSCLC
PC-3 prostate = system: PC-3 prostate
HCT-116 colon = system: HCT-116 colon
RPMI-8226 leukemia = system: RPMI-8226 leukemia
BT-549 breast = system: BT-549 breast
786-0 renal = system: 786-0 renal

Structure (SMILES): COc1cc2c(cc1OC)C(=O)/C(=C/c1ccccc1)CC2
- TGI (SK-MEL-2 melanoma): 29.8 µM
- TGI (TK-10 renal): > 100 µM
- TGI (A549 NSCLC): > 100 µM
- TGI (ACHN renal): > 100 µM
- TGI (NCI-H23 lung): > 100 µM
- TGI (NCI-H460 lung): > 100 µM
- TGI (T-47D breast): > 100 µM
- TGI (RXF 393 renal): > 100 µM
- TGI (MDA-MB-231 breast): > 100 µM
- TGI (SR leukemia): > 100 µM
- TGI (SF-295 CNS): 41.1 µM
- TGI (SK-MEL-28 melanoma): > 100 µM
- TGI (COLO 205 colon): 38.8 µM
- TGI (OVCAR-8 ovarian): > 100 µM
- TGI (HS 578T breast): > 100 µM
- TGI (CCRF-CEM leukemia): > 100 µM
- TGI (LOX IMVI melanoma): > 100 µM
- TGI (DU-145 prostate): > 100 µM
- TGI (KM12 colon): 35.5 µM
- TGI (MCF7 breast): > 100 µM
- TGI (SK-MEL-5 melanoma): 35.2 µM
- TGI (U251 CNS): > 100 µM
- TGI (OVCAR-3 ovarian): > 100 µM
- TGI (UO-31 renal): > 100 µM
- TGI (SNB-19 CNS): > 100 µM
- TGI (HL-60(TB) leukemia): 17.2 µM
- TGI (CAKI-1 renal): 48.3 µM
- TGI (SK-OV-3 ovarian): 97.5 µM
- TGI (HT29 colon): 46.2 µM
- TGI (SF-539 CNS): > 100 µM
- TGI (UACC-257 melanoma): > 100 µM
- TGI (IGROV1 ovarian): > 100 µM
- TGI (HCC-2998 colon): 54.9 µM
- TGI (MOLT-4 leukemia): 71.2 µM
- TGI (MDA-N): > 100 µM
- TGI (OVCAR-4 ovarian): > 100 µM
- TGI (HOP-62 NSCLC): > 100 µM
- TGI (MDA-MB-435): > 100 µM
- TGI (SW-620 colon): > 100 µM
- TGI (HCT-15 colon): 50.3 µM
- TGI (NCI/ADR-RES ovarian): 70 µM
- TGI (EKVX NSCLC): > 100 µM
- TGI (NCI-H226 lung): 74.6 µM
- TGI (SN12C renal): > 100 µM
- TGI (MALME-3M melanoma): > 100 µM
- TGI (NCI-H522 lung): > 100 µM
- TGI (A498 renal): 44.8 µM
- TGI (M14 melanoma): > 100 µM
- TGI (OVCAR-5 ovarian): > 100 µM
- TGI (SNB-75 CNS): > 100 µM
- TGI (K-562 leukemia): > 100 µM
- TGI (SF-268 CNS): > 100 µM
- TGI (HOP-92 NSCLC): 67.3 µM
- TGI (PC-3 prostate): > 100 µM
- TGI (HCT-116 colon): > 100 µM
- TGI (RPMI-8226 leukemia): > 100 µM
- TGI (BT-549 breast): 74.1 µM
- TGI (786-0 renal): > 100 µM
